Assay results: PubChem BioAssay (NCI)
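1) Cells in 96-well plates. 2) Compound, 48 h, 5 concentrations. 3) Linear interpolation between surrounding doses. 4) Unreached endpoint = highest concentration. At the GI50, growth is halved. TGI: total growth inhibition.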

Columns and labels:
Assay in all cases: NCI tumour cell line growth inhibition, 48 h
[1] = system: 786-0 renal
[2] = system: A498 renal
[3] = system: A549 NSCLC
[4] = system: ACHN renal
[5] = system: BT-549 breast
[6] = system: CAKI-1 renal
[7] = system: CCRF-CEM leukemia
[8] = system: COLO 205 colon
[9] = system: DU-145 prostate
[10] = system: EKVX NSCLC
[11] = system: HCC-2998 colon
[12] = system: HCT-116 colon
[13] = system: HCT-15 colon
[14] = system: HL-60(TB) leukemia
[15] = system: HOP-62 NSCLC
[16] = system: HOP-92 NSCLC
[17] = system: HS 578T breast
[18] = system: HT29 colon
[19] = system: IGROV1 ovarian
[20] = system: K-562 leukemia
[21] = system: KM12 colon
[22] = system: LOX IMVI melanoma
[23] = system: M14 melanoma
[24] = system: MALME-3M melanoma
[25] = system: MCF7 breast
[26] = system: MDA-MB-231 breast
[27] = system: MDA-MB-435
[28] = system: MOLT-4 leukemia
[29] = system: NCI-H226 lung
[30] = system: NCI-H23 lung
[31] = system: NCI-H460 lung
[32] = system: NCI-H522 lung
[33] = system: NCI/ADR-RES ovarian
[34] = system: OVCAR-3 ovarian
[35] = system: OVCAR-4 ovarian
[36] = system: OVCAR-5 ovarian
[37] = system: OVCAR-8 ovarian
[38] = system: PC-3 prostate
[39] = system: RPMI-8226 leukemia
[40] = system: RXF 393 renal
[41] = system: SF-268 CNS
[42] = system: SF-295 CNS
[43] = system: SF-539 CNS
[44] = system: SK-MEL-2 melanoma
[45] = system: SK-MEL-28 melanoma
[46] = system: SK-MEL-5 melanoma
[47] = system: SK-OV-3 ovarian
[48] = system: SN12C renal
[49] = system: SNB-19 CNS
[50] = system: SNB-75 CNS
[51] = system: SR leukemia
[52] = system: SW-620 colon
[53] = system: T-47D breast
[54] = system: TK-10 renal
[55] = system: U251 CNS
[56] = system: UACC-257 melanoma
[57] = system: UACC-62 melanoma
[58] = system: UO-31 renal

C[C@@]1(C(=O)O)CCC[C@]2(C)C1CC[C@@]13CC(=O)[C@@](CO)(CC[C@]12O)C3 (stereo partly specified)
GI50 [1]: > 100 µM
TGI [1]: > 100 µM
GI50 [2]: 19.7 µM
TGI [2]: > 100 µM
GI50 [3]: > 100 µM
TGI [3]: > 100 µM
GI50 [4]: > 100 µM
TGI [4]: > 100 µM
GI50 [5]: > 100 µM
TGI [5]: > 100 µM
GI50 [6]: > 100 µM
TGI [6]: > 100 µM
GI50 [7]: > 100 µM
TGI [7]: > 100 µM
GI50 [8]: 6.16 µM
TGI [8]: > 100 µM
GI50 [9]: > 100 µM
TGI [9]: > 100 µM
GI50 [10]: > 100 µM
TGI [10]: > 100 µM
GI50 [11]: 50.7 µM
TGI [11]: > 100 µM
GI50 [12]: > 100 µM
TGI [12]: > 100 µM
GI50 [13]: > 100 µM
TGI [13]: > 100 µM
GI50 [14]: > 100 µM
TGI [14]: > 100 µM
GI50 [15]: > 100 µM
TGI [15]: > 100 µM
GI50 [16]: 11.7 µM
TGI [16]: 97.8 µM
GI50 [17]: > 100 µM
TGI [17]: > 100 µM
GI50 [18]: > 100 µM
TGI [18]: > 100 µM
GI50 [19]: > 100 µM
TGI [19]: > 100 µM
GI50 [20]: > 100 µM
TGI [20]: > 100 µM
GI50 [21]: > 100 µM
TGI [21]: > 100 µM
GI50 [22]: > 100 µM
TGI [22]: > 100 µM
GI50 [23]: > 100 µM
TGI [23]: > 100 µM
GI50 [24]: 24.1 µM
TGI [24]: > 100 µM
GI50 [25]: > 100 µM
TGI [25]: > 100 µM
GI50 [26]: > 100 µM
TGI [26]: > 100 µM
GI50 [27]: > 100 µM
TGI [27]: > 100 µM
GI50 [28]: > 100 µM
TGI [28]: > 100 µM
GI50 [29]: > 100 µM
TGI [29]: > 100 µM
GI50 [30]: > 100 µM
TGI [30]: > 100 µM
GI50 [31]: > 100 µM
TGI [31]: > 100 µM
GI50 [32]: > 100 µM
TGI [32]: > 100 µM
GI50 [33]: > 100 µM
TGI [33]: > 100 µM
GI50 [34]: > 100 µM
TGI [34]: > 100 µM
GI50 [35]: > 100 µM
TGI [35]: > 100 µM
GI50 [36]: > 100 µM
TGI [36]: > 100 µM
GI50 [37]: > 100 µM
TGI [37]: > 100 µM
GI50 [38]: > 100 µM
TGI [38]: > 100 µM
GI50 [39]: > 100 µM
TGI [39]: > 100 µM
GI50 [40]: > 100 µM
TGI [40]: > 100 µM
GI50 [41]: > 100 µM
TGI [41]: > 100 µM
GI50 [42]: > 100 µM
TGI [42]: > 100 µM
GI50 [43]: > 100 µM
TGI [43]: > 100 µM
GI50 [44]: > 100 µM
TGI [44]: > 100 µM
GI50 [45]: > 100 µM
TGI [45]: > 100 µM
GI50 [46]: > 100 µM
TGI [46]: > 100 µM
GI50 [47]: 21.3 µM
TGI [47]: > 100 µM
GI50 [48]: > 100 µM
TGI [48]: > 100 µM
GI50 [49]: 90.7 µM
TGI [49]: > 100 µM
GI50 [50]: > 100 µM
TGI [50]: > 100 µM
GI50 [51]: > 100 µM
TGI [51]: > 100 µM
GI50 [52]: > 100 µM
TGI [52]: > 100 µM
GI50 [53]: 22.2 µM
TGI [53]: > 100 µM
GI50 [54]: > 100 µM
TGI [54]: > 100 µM
GI50 [55]: > 100 µM
TGI [55]: > 100 µM
GI50 [56]: > 100 µM
TGI [56]: > 100 µM
GI50 [57]: > 100 µM
TGI [57]: > 100 µM
GI50 [58]: > 100 µM
TGI [58]: > 100 µM
